From US4517196A, “Tricyclic thiazolyloxamic acids and their derivatives, their preparation, and therapeutic agents containing these compounds” (BASF Aktiengesellschaft, priority 1981, dated 1985)

System: passive cutaneous anaphylaxis
Test: antiallergic action, passive cutaneous anaphylaxis (PCA) in rats, oral
Format: in vivo, rat
Conditions: for ED50: Rattus norvegicus, read-out: Inhibition of PCA, ED 50%; for Inhibition of PCA, relative effectiveness: relative to comparative compound V1 (1.00); for times more effective than the comparative compound V1: administered orally
Protocol: The antiallergic action was tested against passive cutaneous anaphylaxis in rats.
Narcotized male rats (weighing from 100 to 140 g) are sensitized by administration of an intradermal injection (shaved skin) of 0.1 ml of an ovalbumin antiserum. After a sensitization period of about 48 hours, treatment is carried out by administering various dosages (10 animals/dose) of the test substances intraperitoneally or orally. 15 and 20 minutes after treatment, an anitgen/Evans blue mixture (10 mg/kg of ovalbumin in 2% strength Evans blue solution) is injected intravenously into the experimental animals. 30 minutes later, the animals are killed, and the back skin is peeled off and the diameter of the circular blue area on the inner surface is measured. The size of the colored spot in untreated control animals may be standardized. Antiallergic substances reduce the diameter of the colored spots, their reduction being dependent on the dose. The ED 50% is the dose which produces a 50% reduction in the diameter of the colored spot in comparison with control animals which have not been treated with the drug.

[1] = oral administration, rats, dose giving 50% reduction in diameter of colored spot vs untreated controls

SMILES | ED50 [1] | oral effectiveness in doses up to 100 mg/kg (oral, doses up to 100 mg/kg, commercial preparation Intal) | Inhibition of PCA, ED 50% [1] | Inhibition of PCA, relative effectiveness (oral administration, rats) | times more effective than the comparative compound V1
O=C(O)c1cc(=O)c2c(OCC(O)COc3cccc4oc(C(=O)O)cc(=O)c34)cccc2o1 [cromolyn, reference compound] | 100 mg/kg | orally ineffective |  |  | 
O=C(O)C(=O)Nc1nc2ccccc2s1 [Example V1, N-benzothiazol-2-yl oxamate, reference compound] |  |  | > 8.60 mg/kg | 1.00 | 
O=C(O)C(=O)Nc1nc2c(s1)Cc1ccccc1-2 [Example 4, N-(Indeno[1,2-d]thiazol-2-yl)-oxamic acid] | 1.3 mg/kg |  |  | 6.61 | 6.6 times
CCOC(=O)C(=O)Nc1nc2c(s1)C(=O)c1ccccc1-2 [Example 2, Ethyl N-(8-oxoindeno[1,2-d]thiazol-2-yl)-oxamate] | 1.95 mg/kg |  |  | 4.41 | 4.4 times
CCOC(=O)C(=O)Nc1nc2c(s1)Cc1ccccc1-2 [Example 1, Ethyl N-(indeno[1,2-d]thiazol-2-yl)-oxamate] | 1.48 mg/kg |  |  | 5.81 | 
